According to PubChem BioAssay (NCI):
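1) Cells in 96-well plates. 2) Compound, 48 h, 5 concentrations. 3) Linear interpolation between surrounding doses. 4) Unreached endpoint = highest concentration. GI50 is the concentration that inhibits growth by half. At the TGI there is no net growth.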

Legend:
Assay in all cases: NCI tumour cell line growth inhibition, 48 h
786-0 renal = tested on: 786-0 renal
A498 renal = tested on: A498 renal
A549 NSCLC = tested on: A549 NSCLC
ACHN renal = tested on: ACHN renal
BT-549 breast = tested on: BT-549 breast
CAKI-1 renal = tested on: CAKI-1 renal
CCRF-CEM leukemia = tested on: CCRF-CEM leukemia
COLO 205 colon = tested on: COLO 205 colon
DU-145 prostate = tested on: DU-145 prostate
EKVX NSCLC = tested on: EKVX NSCLC
HCC-2998 colon = tested on: HCC-2998 colon
HCT-116 colon = tested on: HCT-116 colon
HCT-15 colon = tested on: HCT-15 colon
HL-60(TB) leukemia = tested on: HL-60(TB) leukemia
HOP-62 NSCLC = tested on: HOP-62 NSCLC
HOP-92 NSCLC = tested on: HOP-92 NSCLC
HS 578T breast = tested on: HS 578T breast
HT29 colon = tested on: HT29 colon
IGROV1 ovarian = tested on: IGROV1 ovarian
K-562 leukemia = tested on: K-562 leukemia
KM12 colon = tested on: KM12 colon
M14 melanoma = tested on: M14 melanoma
MALME-3M melanoma = tested on: MALME-3M melanoma
MCF7 breast = tested on: MCF7 breast
MDA-MB-231 breast = tested on: MDA-MB-231 breast
MDA-MB-435 = tested on: MDA-MB-435
MOLT-4 leukemia = tested on: MOLT-4 leukemia
NCI-H226 lung = tested on: NCI-H226 lung
NCI-H23 lung = tested on: NCI-H23 lung
NCI-H460 lung = tested on: NCI-H460 lung
NCI-H522 lung = tested on: NCI-H522 lung
NCI/ADR-RES ovarian = tested on: NCI/ADR-RES ovarian
OVCAR-4 ovarian = tested on: OVCAR-4 ovarian
OVCAR-5 ovarian = tested on: OVCAR-5 ovarian
OVCAR-8 ovarian = tested on: OVCAR-8 ovarian
PC-3 prostate = tested on: PC-3 prostate
RXF 393 renal = tested on: RXF 393 renal
SF-268 CNS = tested on: SF-268 CNS
SF-295 CNS = tested on: SF-295 CNS
SF-539 CNS = tested on: SF-539 CNS
SK-MEL-2 melanoma = tested on: SK-MEL-2 melanoma
SK-MEL-28 melanoma = tested on: SK-MEL-28 melanoma
SK-MEL-5 melanoma = tested on: SK-MEL-5 melanoma
SK-OV-3 ovarian = tested on: SK-OV-3 ovarian
SN12C renal = tested on: SN12C renal
SNB-19 CNS = tested on: SNB-19 CNS
SNB-75 CNS = tested on: SNB-75 CNS
SR leukemia = tested on: SR leukemia
SW-620 colon = tested on: SW-620 colon
T-47D breast = tested on: T-47D breast
TK-10 renal = tested on: TK-10 renal
U251 CNS = tested on: U251 CNS
UACC-257 melanoma = tested on: UACC-257 melanoma
UACC-62 melanoma = tested on: UACC-62 melanoma

COc1ccc(-c2csc(N(C(=O)N3CCN(c4cc5c(cc4F)c(=O)c(C(=O)O)cn5C4CC4)CC3)c3ccccc3)n2)cc1
GI50 (786-0 renal): 1.15 µM
TGI (786-0 renal): > 66 µM
GI50 (A498 renal): 1.34 µM
TGI (A498 renal): 6.42 µM
GI50 (A549 NSCLC): 3.01 µM
TGI (A549 NSCLC): 12.1 µM
GI50 (ACHN renal): 1.85 µM
TGI (ACHN renal): 5.09 µM
GI50 (BT-549 breast): 1.6 µM
TGI (BT-549 breast): 7.63 µM
GI50 (CAKI-1 renal): 2.46 µM
TGI (CAKI-1 renal): 8.76 µM
GI50 (CCRF-CEM leukemia): 3.06 µM
TGI (CCRF-CEM leukemia): > 100 µM
GI50 (COLO 205 colon): 3 µM
TGI (COLO 205 colon): 9.22 µM
GI50 (DU-145 prostate): 1.49 µM
TGI (DU-145 prostate): > 100 µM
GI50 (EKVX NSCLC): 3.3 µM
TGI (EKVX NSCLC): > 100 µM
GI50 (HCC-2998 colon): 4.13 µM
TGI (HCC-2998 colon): > 100 µM
GI50 (HCT-116 colon): 0.897 µM
TGI (HCT-116 colon): > 63.7 µM
GI50 (HCT-15 colon): 3.19 µM
TGI (HCT-15 colon): > 100 µM
GI50 (HL-60(TB) leukemia): 2.34 µM
TGI (HL-60(TB) leukemia): 5.94 µM
GI50 (HOP-62 NSCLC): 1.12 µM
TGI (HOP-62 NSCLC): > 79 µM
GI50 (HOP-92 NSCLC): 0.597 µM
TGI (HOP-92 NSCLC): 2.14 µM
GI50 (HS 578T breast): 1.48 µM
TGI (HS 578T breast): > 100 µM
GI50 (HT29 colon): 3.62 µM
TGI (HT29 colon): 46.2 µM
GI50 (IGROV1 ovarian): 1.21 µM
TGI (IGROV1 ovarian): > 100 µM
GI50 (K-562 leukemia): 3.1 µM
TGI (K-562 leukemia): > 100 µM
GI50 (KM12 colon): 3.41 µM
TGI (KM12 colon): > 100 µM
GI50 (M14 melanoma): 3.7 µM
TGI (M14 melanoma): > 100 µM
GI50 (MALME-3M melanoma): 2.64 µM
TGI (MALME-3M melanoma): 7.54 µM
GI50 (MCF7 breast): 3.09 µM
TGI (MCF7 breast): > 100 µM
GI50 (MDA-MB-231 breast): 2.44 µM
TGI (MDA-MB-231 breast): 8.13 µM
GI50 (MDA-MB-435): 3.51 µM
TGI (MDA-MB-435): > 100 µM
GI50 (MOLT-4 leukemia): 3.78 µM
TGI (MOLT-4 leukemia): > 100 µM
GI50 (NCI-H226 lung): 3.18 µM
TGI (NCI-H226 lung): 21.7 µM
GI50 (NCI-H23 lung): 2.96 µM
TGI (NCI-H23 lung): 18.4 µM
GI50 (NCI-H460 lung): 3.12 µM
TGI (NCI-H460 lung): > 100 µM
GI50 (NCI-H522 lung): 2.16 µM
TGI (NCI-H522 lung): 6.8 µM
GI50 (NCI/ADR-RES ovarian): 3.78 µM
TGI (NCI/ADR-RES ovarian): > 100 µM
GI50 (OVCAR-4 ovarian): 1.56 µM
TGI (OVCAR-4 ovarian): > 100 µM
GI50 (OVCAR-5 ovarian): 3.29 µM
TGI (OVCAR-5 ovarian): > 100 µM
GI50 (OVCAR-8 ovarian): 2.82 µM
TGI (OVCAR-8 ovarian): > 100 µM
GI50 (PC-3 prostate): 2.77 µM
TGI (PC-3 prostate): > 100 µM
GI50 (RXF 393 renal): 0.789 µM
TGI (RXF 393 renal): 14.8 µM
GI50 (SF-268 CNS): 3.2 µM
TGI (SF-268 CNS): > 100 µM
GI50 (SF-295 CNS): 2.49 µM
TGI (SF-295 CNS): 8.61 µM
GI50 (SF-539 CNS): 2.93 µM
TGI (SF-539 CNS): 48.7 µM
GI50 (SK-MEL-2 melanoma): 2.2 µM
TGI (SK-MEL-2 melanoma): 5.22 µM
GI50 (SK-MEL-28 melanoma): 5.17 µM
TGI (SK-MEL-28 melanoma): > 100 µM
GI50 (SK-MEL-5 melanoma): 2.86 µM
TGI (SK-MEL-5 melanoma): 8.39 µM
GI50 (SK-OV-3 ovarian): 2.49 µM
TGI (SK-OV-3 ovarian): 7.83 µM
GI50 (SN12C renal): 2.95 µM
TGI (SN12C renal): > 100 µM
GI50 (SNB-19 CNS): 1.11 µM
TGI (SNB-19 CNS): > 100 µM
GI50 (SNB-75 CNS): 0.812 µM
TGI (SNB-75 CNS): > 25.9 µM
GI50 (SR leukemia): 2.78 µM
TGI (SR leukemia): > 100 µM
GI50 (SW-620 colon): 4.37 µM
TGI (SW-620 colon): > 100 µM
GI50 (T-47D breast): 2.65 µM
TGI (T-47D breast): 40.7 µM
GI50 (TK-10 renal): 1.7 µM
TGI (TK-10 renal): 39.9 µM
GI50 (U251 CNS): 0.973 µM
TGI (U251 CNS): > 34.3 µM
GI50 (UACC-257 melanoma): 2.35 µM
TGI (UACC-257 melanoma): 6.71 µM
GI50 (UACC-62 melanoma): 2.24 µM
TGI (UACC-62 melanoma): 8.91 µM
